Results from patent publication US20070015733A1, “Aryl Phosphate Derivatives of d4T having Activity Against Resistant HIV Strains” (Parker Hughes Institute, priority 1998, published 2007).
Read-outs that look alike come from different tables or passages of the source.

Assays:
Assay type in all cases: cell-based
[1] = system: AZT- and NNI-resistant HIV-1 (strain: RTMDR-1); experiment: Inhibition of RTMDR-1 (HIV-MDR) replication in PBMNC (RT activity)
Procedure: (§1) Cellular Assays of Anti-HIV Activity and Cytotoxicity. […] Percent viral inhibition was calculated by comparing the RT activity values from the test substance-treated infected cells with RT values from untreated infected cells (i.e., virus controls).

[2] = system: NRTI-resistant recombinant HIV-1 isolates; experiment: p24 assay, multi-NRTI-resistant recombinant HIV-1 clones
[3] = system: HIV-2 (Strain: CBL-20); experiment: Inhibition of HIV-2 replication in PBMNC (RT activity); conditions: Human immunodeficiency virus 2, read-out: HIV-2 IC50 [RT]
Procedure: (P-AZT) and with AZT. The incubation and analysis methods used were as described above for Example 3.
as §1

[4] = system: zidovudine-resistant primary clinical HIV-1 isolates; experiment: p24 drug susceptibility assay, NRTI-/zidovudine-resistant primary clinical HIV-1 isolates in PBMC; conditions: Human immunodeficiency virus 1, PBMC
Procedure: Viruses. […] The HIV-1 strains HTLVIIIB (wildtype RT, NRTI-sensitive, NNRTI-sensitive), A17 (Y181 C mutant, NNRTI-resistant), A17-variant (Y181C+K103N mutant, NNRTI-resistant), and RT-MDR (M41 L, V106N, T215Y; NRTI-resistant, NNRTI-resistant) were also obtained from the AIDS Research and Reference Reagent Program, NIAID.
Antiviral susceptibility assays. Phenotypic drug susceptibility studies of HIV-1 isolates and strains were performed by measuring the production of the p24 gag protein in peripheral blood mononuclear cells (PBMC) from seronegative healthy volunteers in the presence of increasing concentrations of the anti-HIV agent using the quantitative Coulter HIV-1 p24 antigen ezyme immunoassay (EIA) and HIV-1 p24 Antigen Kinetic Standard (Beckman Coulter), as previously described (Uckun, 1998, Antimicrobial Agents and Chemotherapy 37(4): 835-38). Informed consent was obtained from the blood donors according to DHHS guidelines using consent forms approved by the Institutional Review Board. In brief, PBMC were cultured for 72 h in RPMI 1640 medium (Gibco) supplemented with 20% (vol/vol) heat-inactivated fetal bovine serum, 5% human interleukin-2 (Zeptometrix), 2 mM L-glutamine, 25 mM HEPES, 2 g/L NaHCO3, 100 U/ml penicillin/streptomycin (Gibco), 50 μg/ml gentamicin (Gibco), and 5 μg/ml phytohemagglutinin-P (PHA-P) (Sigma) for 24-72 hours prior to exposure to HIV at a multiplicity of infection of 0.001-0.1 during a 1-h adsorbtion period at 37±1° C. in a humidified 5-7% CO2 atmosphere. Subsequently, cells were cultured in 96-well microtiter plates (100 μl/well; 2×10^6 cells/ml, triplicate wells) in the presence of the anti-HIV agents at 6-7 different concentrations ranging from 0.0001 μM to 100 μM, and 25 μL aliquots of culture supernatants were removed from the wells on day 6 after infection for p24 EIA, as previously described (Uckun, 1998, Antimicrobial Agents and Chemotherapy, 37(4):835-38). Controls included uninfected and untreated cells (background control) and infected but untreated (virus control) cells. The p24 EIA utilizes a murine monoclonal antibody to HIV core protein used to coat microwell strips to which the antigen present in the test culture supernatant samples binds. Percent inhibition of viral replication was calculated by comparing the p24 values from the test substance-treated infected cells with p24 values from untreated infected cells (i.e., virus controls). The IC50 values were determined using the Statview statistics program (SAS Institute, Inc.). In parallel, the effects of various treatments on cell viability were also examined as previously described (Uckun, 1998, Antimicrobial Agents and Chemotherapy, 42:383-388). In brief, noninfected PBMC were treated with each compound for 5 days under identical experimental conditions. A microculture tetrazolium assay (MTA) was performed to quantitate cellular proliferation (Uckun, 1998, Antimicrobial Agents and Chemotherapy, 42:383-388).
Phenotypic drug susceptibility studies of HIV-1 isolates and strains were performed by measuring the production of the p24 gag protein in peripheral blood mononuclear cells (PBMC) from seronegative healthy volunteers in the presence of increasing concentrations of the anti-HIV agent using the quantitative Coulter HIV-1 p24 antigen enzyme immunoassay (EIA) and HIV-1 p24 Antigen Kinetic Standard (Beckman Coulter), as previously described. StatView was used in the calculation of the IC50 values from each set of triplicate wells using the linearized form of an exponential equation (lnY=lnb0+b1X; where Y=% inhibition, X=drug concentration). The inhibition constants were log10 transformed to homogenize the variances within each group. […] P-values below 0.05 were deemed significant (JMP Software, SAS).

Compound: COC(=O)C(C)NP(=O)(OC[C@@H]1C=C[C@H](n2cc(C)c(=O)[nH]c2=O)O1)Oc1ccc(Br)cc1 (some centres unmarked) [Compound 1c, d4T-5′-[p-bromo-phenylmethoxyalaninyl phosphate]]
- IC50 ([1]; Human immunodeficiency virus 1, read-out: HIV-MDR IC50 [RT]): 20 nM
- IC50 ([1]; Human immunodeficiency virus 1, read-out: IC50 against HIV-MDR): 20 nM
- IC50 ([1]; Human immunodeficiency virus 1, read-out: RTMDR-1 IC50 [RT]): 20 nM
- IC50 ([2]; Human immunodeficiency virus 1, read-out: IC50 (nM), Mean ± SE, Group B (n = 6) recombinant clones): 27.6 ± 7.9 nM
- IC50 ([2]; Human immunodeficiency virus 1, read-out: IC50 (nM), median, Group B (n = 6)): 22.5 nM
- IC50 ([2]; Human immunodeficiency virus 1, read-out: IC50 (nM), p24, recombinant clone 1617-1 (151 complex)): 19.9 nM
- IC50 ([2]; Human immunodeficiency virus 1, read-out: IC50 (nM), p24, recombinant clone 4755-5): 6 nM
- IC50 ([2]; Human immunodeficiency virus 1, read-out: IC50 (nM), p24, recombinant clone 7295-1): 43 nM
- IC50 ([2]; Human immunodeficiency virus 1, read-out: IC50 (nM), p24, recombinant clone 7324-1): 13.7 nM
- IC50 ([2]; Human immunodeficiency virus 1, read-out: IC50 (nM), p24, recombinant clone 52252-1 in Table 18, 56252-1 in Tables 19 and 20 (K65R, 151 complex)): 25 nM
- IC50 ([2]; Human immunodeficiency virus 1, read-out: IC50 (nM), p24, recombinant clone printed 52534-1 in Table 18, 52534-2 in Tables 19 and 20 (69 insertion complex)): 57.9 nM
- IC50 ([2]; Human immunodeficiency virus 1, read-out: IC50 (nM), range, Group B (n = 6)): 6 to 57.9 nM
- IC50 ([2]; Human immunodeficiency virus 1, read-out: mean IC50 value, recombinant clones with 151 complex or 69 insertion complex (Group 3+Group 4)): 34.3 ± 11.9 nM
- IC50 [3]: 400 nM
- IC50 ([4]; isolate 92BR019 (D67N, L214F, T215D, K219Q), PBMC): 2 nM
- IC50 ([4]; isolate BR/92/019, PBMC, p24): 2 nM
- IC50 ([4]; isolate C140 (M41L, M184V, T215Y), PBMC): 2.5 nM
- IC50 ([4]; isolate C140, PBMC, p24): 2.5 nM
- IC50 ([4]; isolate C467-4 (K20R, D67N, K70R, Y188L, T215F, K219Q), PBMC): 42 nM
- IC50 ([4]; isolate C467-4, PBMC, p24): 42 nM
- IC50 ([4]; isolate G190-6, PBMC, p24): 2.8 nM
- IC50 ([4]; isolate G691-2 (mutations N.D.), PBMC): 5 nM
- IC50 ([4]; isolate G704-2 (M41L, D67N, K70R, L210W, T215Y), PBMC): 3.2 nM
- IC50 ([4]; isolate G704-2, PBMC, p24): 3.2 nM
- IC50 ([4]; isolate G780-1 (M41L, D67N, K70R, T215F, K219Q), PBMC): 35 nM
- IC50 ([4]; isolate G780-1, PBMC, p24): 35 nM
- IC50 ([4]; isolate G890-1 (K20R, M41L, D67N, T69N, K70R, L210W, T215Y), PBMC): 6 nM
- IC50 ([4]; isolate G890-1, PBMC, p24): 6 nM
- IC50 ([4]; isolate G910-6 (M41L, D67N, K70R, T215Y, K219Q), PBMC): 2.8 nM
- IC50 ([4]; isolate P798-1 (M41L, T215Y), PBMC): 7.5 nM
- IC50 ([4]; isolate P798-1, PBMC, p24): 7.5 nM
- IC50 ([4]; isolate Q252-2 (M41L, L210W, T215Y), PBMC): 1.9 nM
- IC50 ([4]; isolate Q252-2, PBMC, p24): 1.9 nM
- IC50 ([4]; isolate R416-10 (M41L, T215Y), PBMC): 0.2 nM
- IC50 ([4]; isolate R416-10, PBMC, p24): 0.2 nM
- IC50 ([4]; isolate S159-2 (M41L, K103N, T215Y), PBMC): 0.78 nM
- IC50 ([4]; isolate S159-2, PBMC, p24): 0.8 nM
- IC50 ([4]; isolate S762-4 (M41L, T215Y), PBMC): 8 nM
- IC50 ([4]; isolate S762-4, PBMC, p24): 8 nM
- IC50 ([4]; isolate T156-3 (M41L, E44D, D67N, T69D, L210W, T215Y), PBMC): 3.3 nM
- IC50 ([4]; isolate T156-3, PBMC, p24): 3.3 nM
- IC50 ([4]; isolate X165-8 (D67N, T69N, K70R, K103N, Y181C, T215F, K219E), PBMC): 13 nM
- IC50 ([4]; isolate X165-8, PBMC, p24): 13 nM
- IC50 ([4]; isolate X165-9 (K20R, D67N, K103N, T215Y), PBMC): 2 nM
- IC50 ([4]; isolate X165-9, PBMC, p24): 2 nM
- IC50 ([4]; isolate X267-1 (L74V), PBMC, p24): 0.2 nM
- IC50 ([4]; isolate X267-1 (M41L, L74V, L210W, T215Y), PBMC): 0.15 nM
- IC50 ([4]; isolate X267-2 (M41L, T215Y), PBMC): 0.18 nM
- IC50 ([4]; isolate X267-2, PBMC, p24): 0.2 nM
- IC50 ([4]; isolate X267-5 (M41L, F116S, T215Y), PBMC): 30 nM
- IC50 ([4]; isolate X267-5, PBMC, p24): 30 nM
- IC50 ([4]; isolate Y270-7 (M41W, Y188L, T215N), PBMC): 9 nM
- IC50 ([4]; isolate Y270-7, PBMC, p24): 9 nM
- IC50 ([4]; primary isolate C467-4 (Y188L), Table 14): 42 nM
- IC50 ([4]; primary isolate S159-2 (K103N), Table 14): < 0.1 nM
- IC50 ([4]; primary isolate X165-8 (K103N, Y181C), Table 14): 13 nM
- IC50 ([4]; primary isolate X165-9 (K103N), Table 14): 2 nM
- IC50 ([4]; primary isolate Y270-7 (Y188L), Table 14): 9 nM
- IC50 ([4]; read-out: IC50 (nM), Mean ± SE, All (n = 25) NRTI-resistant HIV-1 isolates, p24): 13.4 ± 3.2 nM
- IC50 ([4]; read-out: IC50 (nM), Mean ± SE, Group A (n = 19) NRTI-resistant clinical isolates): 8.9 ± 2.9 nM
- IC50 ([4]; read-out: IC50 (nM), median, All (n = 25)): 6 nM
- IC50 ([4]; read-out: IC50 (nM), median, Group A (n = 19)): 3.2 nM
- IC50 ([4]; read-out: IC50 (nM), range, All (n = 25)): 0.2 to 57.9 nM
- IC50 ([4]; read-out: IC50 (nM), range, Group A (n = 19)): 0.2 to 42 nM
- IC50 ([4]; read-out: IC50, μM, Mean ± SE, mean over 20 zidovudine-resistant primary clinical isolates): 8.7 ± 2.7 nM
- IC50 ([4]; read-out: IC50, μM, Mean ± SE, mean over the NNRTI-resistant primary isolates of Table 14): 11.2 ± 6.5 nM
- IC50 ([4]; read-out: IC50 range, range over 20 zidovudine-resistant primary clinical isolates): 1 to 42 nM
- IC50 ([4]; read-out: average IC50 value, mean over 20 zidovudine-resistant primary clinical isolates): 8.7 ± 2.8 nM
- IC50 ([4]; read-out: average IC50 value, mean over primary clinical isolates with NNRTI binding pocket mutations): 11.2 ± 6.5 nM
- IC50 ([4]; read-out: mean IC50 value, NRTI-resistant isolates with 5 thymidine analog mutations (Group 1 in Table 19)): 10.7 ± 5.1 nM
- IC50 ([4]; read-out: mean IC50 value, isolates with M184V plus multiple thymidine analog mutations (Group 2 in Table 19)): 17.2 ± 13 nM
